# From patent publication US20100222421A1, “Usage of Baicalein in the Preparation of a Pharmaceutical Composition for the Treatment of Traumatic Brain Injury” (National Defense Medical Center, priority 2009, published 2010)
# Assays:
# [1] = test system: rats with controlled cortical impact (CCI) injury; assay: Pilot dose-selection studies, behavioural deficits; type: in vivo, rat; conditions: 10 and 30 mg kg^-1 tested, result for 30 mg kg^-1 (unpublished observations)
# Procedure: Baicalein (30 mg kg^−1) dissolved in 10% dimethyl sulphoxide (0.25-0.3 mL) or a corresponding volume of vehicle (10% dimethyl sulphoxide) was administered i.p. immediately following injury or daily for 4 days (immediately, 25, 49 and 73 h) after injury. Behaviour testing using the rotarod, tactile adhesive removal, mNSS and beam walk tests was performed at 28 hours as well as 4, 7, 14, 21 and 28 days post-injury. At 14 and 28 days, the animals were killed, perfused intravascularly and their brains were processed with cresyl violet staining to assess contusion volume (n=8 for each group).
# [2] = test system: IL-6 mRNA; assay: Real-time quantitative RT-PCR, IL-6 mRNA after CCI injury; type: in vivo, rat; conditions: single-dose 30 mg kg^-1 i.p.; ipsilateral cortex, 6 h after injury; P<0.05
# Procedure: A previously described CCI injury procedure was utilized (Chen et al., 2003). Male Sprague-Dawley rats, which have body weight of 250-300 g, were anaesthetized with sodium pentobarbital (i.p.; 50 mgkg^−1; Rhone Merieux, Harlow, UK) and placed in a stereotaxic frame. A 5-mm craniotomy was performed over the left parietal cortex, centered on the coronal suture and 3 mm lateral to the sagittal suture. Considerable care was taken to avoid injury to the underlying dura. Injury was made using a pneumatic piston with a rounded metal tip (2.5 mm diameter) that was angled 22.5° C. to the vertical so that the tip was perpendicular with the brain surface at the centre of the craniotomy. A velocity of 4 ms^−1 and a deformation depth 2 mm below the dura were used. […] Body temperature was monitored throughout the surgery by a rectal probe; temperature was maintained at 37.0±0.5° C. using a heated pad. […] Testing after injury was as follows: (1) real-time quantitative RT-PCR analysis for TNF-α, IL-1β and IL-6 mRNA expression at 6 h post-injury (n=7 for each group); (2) FluoroJade B (FJB) staining, TNF-α, IL-1β and IL-6 immunohistochemistry, as well as ELISA at 24 h post-injury to assess degenerative neurons and to determine cytokine expression (n=7 for each group). […] Approximately 50 mg tissue was collected from the ipsilateral (injured) hemisphere and processed for real-time quantitative RT-PCR. […]
smiles,measurement,setting,value
O=c1cc(-c2ccccc2)oc2cc(O)c(O)c(O)c12 [baicalein],neuroprotective effects in improving behavioural deficits,[1],found to have neuroprotetcive effects
same,"IL-6 mRNA level, % of level in vehicle-treated injured rats",[2],43.6%
